Patent publication US7452876B2, “Cyclopropyl fused indolobenzazepine HCV NS5B inhibitors” (Bristol-Myers Squibb Company, priority 2006, dated 2008)

Experiments:
[1] = target: T1, HCV NS5B RdRp genotype 1b (Hepatitis C virus genotype 1b, UniProt Q9WMX2); assay: Modified HCV NS5B RdRp enzyme assay (preincubation protocol); type: biochemical
T1 construct: The protein was expressed with an 18 amino acid C-terminal truncation to enhance the solubility; made in house; host or cells: E. coli BL21 (DE3), pET21a
T1 sequence (Q9WMX2 2420-2992): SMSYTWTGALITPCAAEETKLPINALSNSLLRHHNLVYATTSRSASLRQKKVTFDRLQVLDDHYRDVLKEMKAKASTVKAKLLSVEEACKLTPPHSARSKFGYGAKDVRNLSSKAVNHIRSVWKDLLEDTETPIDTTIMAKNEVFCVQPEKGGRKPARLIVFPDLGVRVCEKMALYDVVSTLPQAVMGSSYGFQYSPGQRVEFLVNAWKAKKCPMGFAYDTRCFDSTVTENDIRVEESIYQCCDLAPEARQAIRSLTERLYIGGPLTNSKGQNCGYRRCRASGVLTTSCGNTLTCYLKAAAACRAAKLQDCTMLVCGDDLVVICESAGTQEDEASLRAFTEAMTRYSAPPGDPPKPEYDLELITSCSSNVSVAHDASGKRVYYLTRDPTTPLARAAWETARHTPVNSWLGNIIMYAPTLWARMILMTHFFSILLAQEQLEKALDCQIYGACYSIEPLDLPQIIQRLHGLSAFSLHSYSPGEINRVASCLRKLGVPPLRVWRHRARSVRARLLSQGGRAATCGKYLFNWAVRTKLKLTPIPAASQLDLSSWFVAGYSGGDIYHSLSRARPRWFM
Protocol: HCV NS5B RdRp cloning, expression, and purification. The cDNA encoding the NS5B protein of HCV, genotype 1b, was cloned into the pET21a expression vector. The protein was expressed with an 18 amino acid C-terminal truncation to enhance the solubility. The E. coli competent cell line BL21 (DE3) was used for expression of the protein. Cultures were grown at 37° C. for ˜4 hours until the cultures reached an optical density of 2.0 at 600 nm. The cultures were cooled to 20° C. and induced with 1 mM IPTG. Fresh ampicillin was added to a final concentration of 50 μg/ml and the cells were grown overnight at 20° C.
Cell pellets (3L) were lysed for purification to yield 15-24 mgs of purified NS5B. The lysis buffer consisted of 20 mM Tris-HCl, pH 7.4, 500 mM NaCl, 0.5% triton X-100, 1 mM DTT, 1 mM EDTA, 20% glycerol, 0.5 mg/ml lysozyme, 10 mM MgCl2, 15 ug/ml deoxyribonuclease I, and Complete TM protease inhibitor tablets (Roche). After addition of the lysis buffer, frozen cell pellets were resuspended using a tissue homogenizer. To reduce the viscosity of the sample, aliquots of the lysate were sonicated on ice using a microtip attached to a Branson sonicator. The sonicated lysate was centrifuged at 100,000×g for 1 hr at 4° C. and filtered through a 0.2 μm filter unit (Corning).
The protein was purified using three sequential chromatography steps: Heparin sepharose CL-6B, polyU sepharose 4B, and Hitrap SP sepharose (Pharmacia). The chromatography buffers were identical to the lysis buffer but contained no lysozyme, deoxyribonuclease I, MgCl2 or protease inhibitor and the NaCl concentration of the buffer was adjusted according to the requirements for charging the protein onto the column. Each column was eluted with a NaCl gradient which varied in length from 5-50 column volumes depending on the column type. After the final chromatography step, the resulting purity of the enzyme is >90% based on SDS-PAGE analysis. The enzyme was aliquoted and stored at −80° C.
Standard HCVNS5B RdRp enzyme assay. HCV RdRp genotype 1b assays were run in a final volume of 60 μl in 96 well plates (Costar 3912). The assay buffer is composed of 20 mM Hepes, pH 7.5, 2.5 mM KCl, 2.5 mM MgCl2, 1 mM DTT, 1.6 U RNAse inhibitor (Promega N2515), 0.1 mg/ml BSA (Promega R3961), and 2% glycerol. All compounds were serially diluted (3-fold) in DMSO and diluted further in water such that the final concentration of DMSO in the assay was 2%. HCV RdRp genotype 1b enzyme was used at a final concentration of 28 nM. A polyA template was used at 6 nM, and a biotinylated oligo-dT 12 primer was used at 180 nM final concentration. Template was obtained commercially (Amersham 27-4110). Biotinylated primer was prepared by Sigma Genosys. 3H-UTP was used at 0.6 μCi (0.29 μM total UTP). Reactions were initiated by the addition of enzyme, incubated at 30° C. for 60 min, and stopped by adding 25 μl of 50 mM EDTA containing SPA beads (4 μg/μl, Amersham RPNQ 0007). Plates were read on a Packard Top Count NXT after >1 hr incubation at room temperature.
Modified HCVNS5B RdRp enzyme assay. A modified enzyme assay was performed essentially as described for the standard enzyme assay except for the following: The biotinylated oligo dT12 primer was precaptured on streptavidin-coated SPA beads by mixing primer and beads in assay buffer and incubating at room temperature for one hour. Unbound primer was removed after centrifugation. The primer-bound beads were resuspended in 20 mM Hepes buffer, pH 7.5 and used in the assay at final concentrations of 20 nM primer and 0.67 μg/μl beads. Order of addition in the assay: enzyme (14 nM) was added to diluted compound followed by the addition of a mixture of template (0.2 nM), 3H-UTP (0.6 μCi, 0.29 μM), and primer-bound beads, to initiate the reaction; concentrations given are final. Reactions were allowed to proceed for 4 hours at 30° C.
IC50 values for compounds were determined using seven different [I]. […]

HCV replicon cells = assay: HCV replicon FRET assay; type: cell-based; settings: Hepatitis C virus
From the text: FRET Assay Preparation. To perform the HCV FRET screening assay, 96-well cell culture plates were used. The FRET peptide (Anaspec, Inc.) (Taliani et al., Anal. Biochem. 1996, 240, 60-67) contains a fluorescence donor, EDANS, near one end of the peptide and an acceptor, DABCYL, near the other end. The fluorescence of the peptide is quenched by […] resonance energy transfer (RET) between the donor and the acceptor, but as the NS3 protease cleaves the peptide the products are released from RET quenching and the fluorescence of the donor becomes apparent. The assay reagent was made as follows: 5× cell Luciferase cell culture lysis reagent from Promega (#E153A) diluted to 1× with dH2O, NaCl added to 150 mM final, the FRET peptide diluted to 20 uM final from a 2 mM stock.
To prepare plates, HCV replicon cells, with or without a Renilla luciferase reporter gene, were trypsinized and placed into each well of a 96-well plate with titrated test compounds added in columns 3 through 12; columns 1 and 2 contained a control compound (HCV protease inhibitor), and the bottom row contained cells without compound. The plates were then placed in a CO2 incubator at 37° C.
Assays. Subsequent to addition of the test compounds described above (FRET Assay Preparation), at various times the plate was removed and Alamar blue solution (Trek Diagnostics, #00-100) was added per well as a measure of cellular toxicity. After reading in a Cytoflour 4000 instrument (PE Biosystems), plates were rinsed with PBS and then used for FRET assay by the addition of 30 ul of the FRET peptide assay reagent described above (FRET Assay Preparation) per well. The plate was then placed into the Cytoflour 4000 instrument which had been set to 340 excite/490 emission, automatic mode for 20 cycles and the plate read in a kinetic mode. Typically, the signal to noise using an endpoint analysis after the reads was at least three-fold. Alternatively, after Alamar blue reading, plates were rinsed with PBS, 50 ul of DMEM (high glucose) without phenol red was added and plates were then used for luciferase assay using the Promega Dual-Glo Luciferase Assay System.
Compound analysis was determined by quantification of the relative HCV replicon inhibition and the relative cytotoxicity values. To calculate cytoxicity values, the average Alamar Blue fluorescence signals from the control wells were set as 100% non-toxic. The individual signals in each of the compound test wells were then divided by the average control signal and multiplied by 100% to determine […]. To calculate the HCV replicon inhibition values, an average background value was obtained from the two wells containing the highest amount of HCV protease inhibitor at the end of the assay period. These numbers were similar to those obtained from naïve Huh-7 cells.
The background numbers were then subtracted from the average signal obtained from the control wells and this number was used as 100% activity. The individual signals in each of the compound test wells were then divided by the averaged control values after background subtraction and multiplied by 100% to determine percent activity. EC50 values for a protease inhibitor titration were calculated as the concentration which caused a 50% reduction in FRET or luciferase activity. The two numbers generated for the compound plate, percent cytoxicity and percent activity were used to determine compounds of interest for further analysis.

Row | Compound | IC50 [1] [nM] | EC50 (HCV replicon cells) [nM]
1 | COC(=O)c1ccc2c(C3CCCCC3)c3n(c2c1)CC1(NC(=O)N2CCOCC2)CC1c1cc(OC)ccc1-3 (stereo not shown) | 20 to 1000 | 
2 | COc1ccc2c(c1)C1CC1(NC(=O)N(C)CC(=O)N1CCN(C)CC1)Cn1c-2c(C2CCCCC2)c2ccc(C(=O)NS(=O)(=O)N(C)C)cc21 (stereo not shown) | 20 to 1000 | 20 to 1000
3 | COc1ccc2c(c1)C1CC1(NC(=O)N(C)CC(N)=O)Cn1c-2c(C2CCCCC2)c2ccc(C(=O)NS(=O)(=O)N(C)C)cc21 (stereo not shown) | 20 to 1000 | 20 to 1000
4 | COc1ccc2c(c1)[C@@H]1C[C@]1(NC(=O)OC(C)(C)C)Cn1c-2c(C2CCCCC2)c2ccc(C(=O)NS(=O)(=O)N(C)C)cc21 | 20 to 1000 | 20 to 1000
5 | COc1ccc2c(c1)C1CC1(NC(=O)N1CC(OC)C1)Cn1c-2c(C2CCCCC2)c2ccc(C(=O)NS(=O)(=O)N(C)C)cc21 (stereo not shown) | 20 to 1000 | 20 to 1000
6 | COCCNC(=O)CN(C)C(=O)NC12CC1c1cc(OC)ccc1-c1c(C3CCCCC3)c3ccc(C(=O)NS(=O)(=O)N(C)C)cc3n1C2 (stereo not shown) | 20 to 1000 | 20 to 1000
7 | COc1ccc2c(c1)C1CC1(NC(=O)OC(C)(C)C)Cn1c-2c(C2CCCCC2)c2ccc(C(=O)NS(=O)(=O)N(C)C)cc21 (stereo not shown) | 20 to 1000 | 20 to 1000
8 | COc1ccc2c(c1)[C@@H]1C[C@]1(N)Cn1c-2c(C2CCCCC2)c2ccc(C(=O)NS(=O)(=O)N(C)C)cc21 | 20 to 1000 | 20 to 1000
9 | COC(=O)c1ccc2c(C3CCCCC3)c3n(c2c1)CC1(NC(=O)N2CCOCC2)CC1c1ccccc1-3 (stereo not shown) | 20 to 1000 | 
10 | COc1ccc2c(c1)C1CC1(NC(=O)N1C[C@@H](C)N(C)[C@@H](C)C1)Cn1c-2c(C2CCCCC2)c2ccc(C(=O)NS(=O)(=O)N(C)C)cc21 (stereo partly shown) | 20 to 1000 | 20 to 1000
11 | COc1ccc2c(c1)C1CC1(N)Cn1c-2c(C2CCCCC2)c2ccc(C(=O)NS(=O)(=O)N(C)C)cc21 (stereo not shown) | 20 to 1000 | 20 to 1000
12 | COc1ccc2c(c1)C1CC1(NC(=O)N(C)CCN(C)C)Cn1c-2c(C2CCCCC2)c2ccc(C(=O)NS(=O)(=O)N(C)C)cc21 (stereo not shown) | 20 to 1000 | 20 to 1000
13 | COc1ccc2c(c1)C1CC1(NC(=O)N(C)CC1CCOCC1)Cn1c-2c(C2CCCCC2)c2ccc(C(=O)NS(=O)(=O)N(C)C)cc21 (stereo not shown) | 20 to 1000 | 20 to 1000
14 | COc1ccc2c(c1)C1CC1(NC(=O)N1C[C@@H](C)O[C@@H](C)C1)Cn1c-2c(C2CCCCC2)c2ccc(C(=O)NS(=O)(=O)N(C)C)cc21 (stereo partly shown) | 20 to 1000 | 70 to 1000
15 | CNC12CC1c1cc(OC)ccc1-c1c(C3CCCCC3)c3ccc(C(=O)NS(=O)(=O)N(C)C)cc3n1C2 (stereo not shown) | 20 to 1000 | 
16 | COc1ccc2c(c1)C1CC1(NC(=O)N1CCOCC1)Cn1c-2c(C2CCCCC2)c2ccc(C(=O)O)cc21 (stereo not shown) | 20 to 1000 | 70 to 1000
17 | O=C(O)c1ccc2c(C3CCCCC3)c3n(c2c1)CC1(NC(=O)N2CCOCC2)CC1c1ccccc1-3 (stereo not shown) | 20 to 1000 | 70 to 1000
